Measurements from ChEMBL document CHEMBL1201862, “PubChem BioAssay data set” (2004).
One block for each compound: values may come before it. Calls of active or inactive are those of the source.

Legend:
Cytochrome P450 3A4 = Cytochrome P450 3A4 (Homo sapiens, UniProt P08684);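 also: CYP3A4 tested as one member of a cytochrome P450 panel screen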
INS1 = experiment: beta cell apoptosis inhibitors, cytokine rescue, dose response, luminescence, retest (AID 449756); type: functional, cell-based; details: Rattus norvegicus;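 also: cell death triggered by IL-1 beta plus TNF-alpha plus IFN-gamma mixture; protective hits raise ATP signal compared with cytokine alone wells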
Cytochrome P450 2D6 = Cytochrome P450 2D6 (Homo sapiens, UniProt P10635);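 also: CYP2D6 member of a cytochrome P450 panel assay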
Cytochrome P450 2C19 = Cytochrome P450 2C19 (Homo sapiens, UniProt P33261); experiment: Cytochrome panel assay with activity outcomes. Panel member name: p450-cyp2c19 Compounds with AC50 equal or less than 10 uM are considered active; type: functional
[1] = inhibitors of intracellular T. cruzi replication, confirmation, NIH3T3 host cells, beta-gal luminescence (AID 2044); type: functional, cell-based;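 also: intracellular parasites grown in NIH/3T3 mouse fibroblasts as host cells; luminescent beta-galactosidase reporter signal from transgenic T. cruzi replicating inside host cells; inhibitors lower the luminescence signal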
[2] = cytotoxicity toward NIH3T3 fibroblasts, dose response, counter-screen, cell-based, ATP luminescence, mouse fibroblasts (AID 2010); type: functional;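 also: cells exposed to compound for about 90 hours before reading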
[3] = target: T1, Rac GTPase-activating protein 1 (Homo sapiens, UniProt Q9H0H5); experiment: MgcRacGAP GTPase-activating activity inhibitors, confirmation, biochemical, ADP Hunter fluorescence, primary and confirmatory (AID 624330); type: functional
T1 sequence (Q9H0H5 whole entry): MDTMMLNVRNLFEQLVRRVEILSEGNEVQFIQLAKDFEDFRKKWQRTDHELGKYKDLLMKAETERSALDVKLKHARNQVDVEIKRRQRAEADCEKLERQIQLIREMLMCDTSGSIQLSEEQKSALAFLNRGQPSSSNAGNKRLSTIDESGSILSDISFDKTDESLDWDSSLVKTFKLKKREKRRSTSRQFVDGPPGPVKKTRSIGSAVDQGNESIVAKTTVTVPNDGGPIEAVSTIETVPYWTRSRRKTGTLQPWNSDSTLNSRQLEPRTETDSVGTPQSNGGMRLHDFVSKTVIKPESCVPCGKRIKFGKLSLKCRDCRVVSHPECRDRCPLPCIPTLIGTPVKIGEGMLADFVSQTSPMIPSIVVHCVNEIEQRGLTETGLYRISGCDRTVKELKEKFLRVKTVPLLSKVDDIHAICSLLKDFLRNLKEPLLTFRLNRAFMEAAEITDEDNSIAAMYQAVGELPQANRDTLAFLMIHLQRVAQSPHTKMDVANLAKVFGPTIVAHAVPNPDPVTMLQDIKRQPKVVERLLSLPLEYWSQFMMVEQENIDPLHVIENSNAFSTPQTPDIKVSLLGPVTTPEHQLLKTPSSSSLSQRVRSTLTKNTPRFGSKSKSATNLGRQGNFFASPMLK

[4] = target: T2, Corticotropin-releasing factor receptor 2/Corticotropin-releasing factor-binding protein (Homo sapiens, UniProt P24387+Q13324); experiment: activators of CRF receptor 2 with binding protein – uHTS hits, confirmation (AID 602473); type: functional; details: read-out: EC50_Mean
T2 sequence (Q13324 whole entry): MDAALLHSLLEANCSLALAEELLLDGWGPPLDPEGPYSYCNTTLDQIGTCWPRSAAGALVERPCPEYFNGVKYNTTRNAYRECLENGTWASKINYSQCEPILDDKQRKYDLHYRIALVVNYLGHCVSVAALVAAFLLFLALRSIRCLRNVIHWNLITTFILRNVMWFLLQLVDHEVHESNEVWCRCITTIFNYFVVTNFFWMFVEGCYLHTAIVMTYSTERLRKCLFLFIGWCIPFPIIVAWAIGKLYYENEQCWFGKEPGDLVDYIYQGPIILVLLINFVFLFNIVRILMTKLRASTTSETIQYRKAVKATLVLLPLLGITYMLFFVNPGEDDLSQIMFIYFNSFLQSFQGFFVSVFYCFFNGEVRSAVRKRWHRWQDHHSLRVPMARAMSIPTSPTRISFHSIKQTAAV
T2 sequence (P24387 whole entry): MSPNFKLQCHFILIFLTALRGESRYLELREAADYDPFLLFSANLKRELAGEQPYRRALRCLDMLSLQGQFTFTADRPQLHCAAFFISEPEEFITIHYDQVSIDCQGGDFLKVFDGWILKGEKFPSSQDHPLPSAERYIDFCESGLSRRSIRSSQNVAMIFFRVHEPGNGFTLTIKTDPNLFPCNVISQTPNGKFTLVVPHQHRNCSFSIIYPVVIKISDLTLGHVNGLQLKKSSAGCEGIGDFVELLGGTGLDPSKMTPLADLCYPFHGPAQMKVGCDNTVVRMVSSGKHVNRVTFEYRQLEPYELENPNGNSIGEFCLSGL

Cytochrome P450 3A4, sequence (P08684 whole entry): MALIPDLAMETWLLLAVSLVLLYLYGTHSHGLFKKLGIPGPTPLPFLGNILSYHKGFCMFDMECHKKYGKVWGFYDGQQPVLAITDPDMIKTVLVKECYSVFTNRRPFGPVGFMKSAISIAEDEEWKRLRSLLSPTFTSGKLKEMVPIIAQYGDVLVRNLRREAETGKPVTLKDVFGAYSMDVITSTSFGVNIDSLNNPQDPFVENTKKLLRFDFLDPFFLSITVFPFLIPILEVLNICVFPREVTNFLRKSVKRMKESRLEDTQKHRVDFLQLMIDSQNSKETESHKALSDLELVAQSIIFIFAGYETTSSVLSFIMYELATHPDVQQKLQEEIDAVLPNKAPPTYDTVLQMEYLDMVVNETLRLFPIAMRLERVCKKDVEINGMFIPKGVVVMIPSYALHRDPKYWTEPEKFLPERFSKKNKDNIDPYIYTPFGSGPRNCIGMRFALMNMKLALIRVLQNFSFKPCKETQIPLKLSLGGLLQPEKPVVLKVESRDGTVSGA
Cytochrome P450 2D6, sequence (P10635 whole entry): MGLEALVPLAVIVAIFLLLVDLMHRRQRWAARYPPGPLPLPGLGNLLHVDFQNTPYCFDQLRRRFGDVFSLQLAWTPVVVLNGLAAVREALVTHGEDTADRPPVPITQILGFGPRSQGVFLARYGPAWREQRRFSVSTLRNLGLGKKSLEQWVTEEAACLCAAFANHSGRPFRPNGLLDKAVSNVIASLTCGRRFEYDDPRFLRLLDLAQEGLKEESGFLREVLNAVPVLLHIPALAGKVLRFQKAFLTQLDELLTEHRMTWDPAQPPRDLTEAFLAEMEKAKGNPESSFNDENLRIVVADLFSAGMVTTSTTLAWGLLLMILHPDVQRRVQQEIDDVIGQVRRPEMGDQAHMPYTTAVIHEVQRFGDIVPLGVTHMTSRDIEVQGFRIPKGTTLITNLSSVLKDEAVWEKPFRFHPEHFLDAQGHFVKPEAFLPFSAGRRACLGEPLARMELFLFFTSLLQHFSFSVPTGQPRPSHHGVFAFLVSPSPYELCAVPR
Cytochrome P450 2C19, sequence (P33261 whole entry): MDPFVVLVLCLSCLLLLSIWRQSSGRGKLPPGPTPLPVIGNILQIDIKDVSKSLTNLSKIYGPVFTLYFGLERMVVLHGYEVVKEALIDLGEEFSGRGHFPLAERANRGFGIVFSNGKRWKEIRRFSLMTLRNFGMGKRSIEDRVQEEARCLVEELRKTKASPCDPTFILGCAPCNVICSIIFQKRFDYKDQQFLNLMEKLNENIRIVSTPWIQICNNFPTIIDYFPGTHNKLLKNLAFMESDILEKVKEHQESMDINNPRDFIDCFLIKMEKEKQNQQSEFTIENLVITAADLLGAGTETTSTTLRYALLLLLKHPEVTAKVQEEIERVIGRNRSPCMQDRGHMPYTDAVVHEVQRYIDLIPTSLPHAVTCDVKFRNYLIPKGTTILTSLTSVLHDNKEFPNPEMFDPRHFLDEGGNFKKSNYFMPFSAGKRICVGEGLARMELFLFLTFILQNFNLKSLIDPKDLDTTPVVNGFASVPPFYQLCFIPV

AC50 (Cytochrome P450 3A4): 25.1 µM (inconclusive)
Compound: O=S(=O)(NCc1cc(-c2ccc(Cl)cc2)no1)c1ccc(Cl)cc1

Compound: CC1(C(=O)OCC(=O)N2c3ccccc3Sc3ccccc32)CC1(Cl)Cl (configuration not stated)
AC50 (INS1): 37.4 µM (active)

AC50 (Cytochrome P450 2D6): 20 µM (inconclusive)
AC50 (Cytochrome P450 2C19; read-out: AC50): 25.1 µM (inconclusive)
Compound: COCCNc1ncnc2ccc(-c3ccc(N(C)C)cc3)cc12

AC50 (Cytochrome P450 3A4): 10 µM (inconclusive)
Compound: CCNc1ncc2nc(-c3cc(F)cc(F)c3)c(=O)n(-c3ccccc3)c2n1

Compound: O=C1N(Cc2cccc(Cl)c2)C[C@@H]2C[C@@H](c3c[nH]c4ccccc34)N3CCC[C@@]123
EC50 [1]: 2000 nM (active)
EC50 [2]: > 60 µM (inconclusive)

AC50 (Cytochrome P450 2D6): 15.8 µM (inconclusive)
Compound: CCc1nnc(NC(=O)C2Cc3ccccc3CN2S(=O)(=O)c2ccc(C)cc2)s1 (configuration not stated)

AC50 (Cytochrome P450 3A4): 28.2 µM (inconclusive)
Compound: C=CCNC(=O)c1csc(-c2ccccc2)n1

IC50 [3]: 118 µM (active)
Compound: COc1ccc(C(=O)CCC(=O)Nc2cc(Cl)c(O)c(Cl)c2)cc1

Compound: CCCCOC(=O)Nc1nnc(C(C)C)s1
EC50 [1]: 1260 nM (active)
EC50 [2]: 12.9 µM (active)

AC50 (Cytochrome P450 3A4): 25.1 µM (inconclusive)
Compound: c1csc(CNc2cc(-c3ccoc3)ncn2)c1

AC50 (Cytochrome P450 2D6): 31.6 µM (inconclusive)
AC50 (Cytochrome P450 2C19; read-out: AC50): 7.08 µM (inconclusive)
Compound: Clc1ccc(-c2nc3ncccn3c2Nc2ccc3c(c2)OCCO3)cc1

IC50 [3]: 41.4 µM (active)
Compound: Clc1ccc(CNc2ccc(N3CCN(Cc4ccccc4)CC3)cc2)cc1

AC50 (Cytochrome P450 3A4): 3.16 µM (inconclusive)
Compound: CCc1cc2c(nc1CC)CCN(CC/C(C)=N/O[C@@H](C)CN1CCCc3nc(C)c(C)cc31)C2

Compound: Cc1cccc(C(=O)NCCCN(C)CCCNC(=O)c2cccc(C)c2)c1
EC50 [1]: 894 nM (active)
EC50 [2]: > 60 µM (not active)

AC50 (Cytochrome P450 3A4): 3.98 µM (inconclusive)
Compound: C#CCCCO/N=C1/[C@H]2O[C@@H]2[C@@H](O)[C@H]2[C@H]1CCn1c(=O)n([C@@H](CC)c3ccccc3)c(=O)n12

AC50 (Cytochrome P450 2C19; read-out: AC50): 39.8 µM (inconclusive)
Compound: CCNc1ncc2nc(CCc3ccccc3)c(=O)n(C[C@H]3CCCO3)c2n1

Compound: CCOC(=O)C1=C(N)Oc2ccc3ccccc3c2C1c1cccnc1 (configuration not stated)
EC50 [1]: 243 nM (active)
EC50 [2]: > 60 µM (not active)

Compound: COc1ccc(-c2c[n+](-c3ccc(OC)cc3)c3n2-c2ccccc2CC3)cc1
AC50 (INS1): 0.786 µM (active)

IC50 [3]: 50.5 µM (active)
Compound: O=C(Oc1ccc2c(c1)OCO2)c1ccncc1

Compound: Cc1c(Cl)cccc1NC(=O)CCCn1cnc([N+](=O)[O-])n1
EC50 [1]: 131 nM (active)
EC50 [2]: > 60 µM (not active)

Compound: COc1ccccc1C1NC=C([N+](=O)[O-])C=C1[N+](=O)[O-] (configuration not stated)
EC50 [1]: 1730 nM (active)
EC50 [2]: > 60 µM (not active)

AC50 (Cytochrome P450 2D6): 20 µM (inconclusive)
Compound: COc1ccccc1CN1CCCC2(CCNCC2)C1

AC50 (Cytochrome P450 3A4): 31.6 µM (inconclusive)
Compound: C[C@@]1(C(=O)O)NCCc2cc(O)c(O)cc21

EC50 [4]: 4.2 µM (active)
Compound: Cc1ccc(C(=O)NC(=S)NNC(=O)c2ccc([N+](=O)[O-])cc2)cc1

Compound: Cc1ccc(C(=O)NC(=S)Nc2ccc(CN3CCCCC3)cc2)c(C)c1
EC50 [1]: 980 nM (active)
EC50 [2]: 15.8 µM (active)

Compound: CC(C)(CNc1ccc(S(=O)(=O)C(F)(F)F)cc1[N+](=O)[O-])N1CCOCC1
EC50 [1]: 2420 nM (active)
EC50 [2]: 4.83 µM (active)

Compound: O=[As](O)(O)c1ccc2nc3cc([As](=O)(O)O)ccc3nc2c1
AC50 (Cytochrome P450 2C19): inconclusive

AC50 (Cytochrome P450 2D6): 1 µM (inconclusive)
Compound: Cc1ccc(SCCCn2cnc3ccccc3c2=O)cc1

Compound: FC(F)(F)c1n[nH]c(SCc2ccc(Cl)cc2)n1
AC50 (Cytochrome P450 2C19; read-out: AC50): 2.51 µM (inconclusive)

Compound: Cc1ccc(S(=O)(=O)NCCn2cnc([N+](=O)[O-])n2)cc1
EC50 [1]: 116 nM (active)
EC50 [2]: > 60 µM (not active)

AC50 (Cytochrome P450 2D6): 39.8 µM (inconclusive)
AC50 (Cytochrome P450 2C19; read-out: AC50): 39.8 µM (inconclusive)
Compound: CCc1cccc2nc3c(c([Si](C)(C)C)c12)Cn1c-3cccc1=O

EC50 [4]: > 53 µM (inactive)
Compound: C=CCN1C(c2cccc(C(F)(F)F)c2)=CS/C1=C(/C#N)c1nnc(N2CCOCC2)n1-c1ccccc1

EC50 [4]: 0.832 µM (active)
Compound: CSCCC(NC(=O)c1ccco1)C(=O)OC(C)C(=O)NC(=O)NC1CCCCC1 (configuration not stated)

AC50 (Cytochrome P450 2C19; read-out: AC50): 7.94 µM (inconclusive)
Compound: CCC(=O)Nc1ccc2c(c1)C(=O)c1ccccc1C2=O

AC50 (Cytochrome P450 2C19; read-out: AC50): 31.6 µM (inconclusive)
Compound: Cc1cc(NC(=O)c2cccc(F)c2)no1

Compound: CN1/C(=C\C(S)=Nc2ccccc2)C(C)(C)c2ccccc21
AC50 (INS1): 8.05 µM (active)

AC50 (Cytochrome P450 2D6): 3.16 µM (inconclusive)
AC50 (Cytochrome P450 2C19; read-out: AC50): 0.0126 µM (inconclusive)
Compound: COc1cccc([C@@H]2Oc3ccc(OC)cc3/C(=N/O[C@@H](C)CN3CCCCc4nc(C)c(C)cc43)[C@@H]2O)c1

AC50 (Cytochrome P450 2D6): 12.6 µM (inconclusive)
Compound: COc1ccc(NC(=O)N2CC3(CCN(C(C)=O)CC3)C2)cc1

AC50 (Cytochrome P450 2D6): 17.8 µM (inconclusive)
Compound: O=C1/C(=C\c2ccccn2)SC(=S)N1Nc1ncc(C(F)(F)F)cc1Cl

AC50 (Cytochrome P450 3A4): 39.8 µM (inconclusive)
Compound: Cc1ccc(S(=O)(=O)/C=C\C#N)cc1

IC50 [3]: 133 µM (active)
Compound: COc1cc(CN2CCC(C(=O)NC3CCCC3)CC2)ccc1O

AC50 (Cytochrome P450 2D6): 22.4 µM (inconclusive)
AC50 (Cytochrome P450 2C19; read-out: AC50): 7.94 µM (inconclusive)
Compound: CC(C)(C)c1ccc(C(=O)NCCC(=O)NCc2ccco2)cc1

AC50 (Cytochrome P450 3A4): 3.16 µM (inconclusive)
Compound: c1ccc(C2=NN[C@@H]3c4ccccc4-c4ccccc4N3C2)cc1

EC50 [4]: > 53 µM (inactive)
Compound: N#C/C(=C(/O)COC(=O)c1ccccc1O)c1nc2ccccc2s1

AC50 (Cytochrome P450 3A4): 11.2 µM (inconclusive)
Compound: COc1ccc(-c2cc(C(=O)Nc3nc4c(C)cccc4s3)c3ccccc3n2)cc1OC

AC50 (Cytochrome P450 2C19): inconclusive
Compound: CCOC(=O)C1CCN(C(=O)C2CCN(S(=O)(=O)N3CCCC3)CC2)CC1

EC50 [4]: 7.87 µM (active)
Compound: CCOC(=O)C1(CC2CCCCO2)CCN(Cc2cc3ccccc3[nH]2)CC1 (configuration not stated)

Compound: CCCNC(=O)c1ccc(N2CCC3(CC2)CC(c2cccc(Br)c2)=NO3)c(NC(=O)c2ccccc2)c1
EC50 [1]: 2500 nM (active)
EC50 [2]: > 60 µM (not active)

IC50 [3]: 65.1 µM (active)
Compound: COc1ccc(NC2CCCN(C(=O)CCN3Cc4ccccc4C3=O)C2)cc1 (configuration not stated)

IC50 [3]: 19.5 µM (active)
Compound: Cn1c(=O)c2nc(S)n(Cc3ccccc3)c2n(C)c1=O

AC50 (Cytochrome P450 2C19; read-out: AC50): 0.0355 µM (inconclusive)
Compound: Cc1ccc(N(C(=O)C(F)(F)F)C(C(=O)NC2CCCCC2)c2cccs2)cc1C (configuration not stated)

EC50 [4]: > 53 µM (inactive)
Compound: CN1CCc2c(sc(/N=C/c3cccs3)c2C(N)=O)C1

IC50 [3]: 342 µM (active)
Compound: CCOC(=O)C1CCN(Cc2cccc(Oc3ccccc3)c2)CC1

Compound: COc1cccc(C(=O)Oc2c(Br)cc(Br)cc2/C=N/NC(=O)c2cc(C)[nH]n2)c1
EC50 [1]: 942 nM (active)
EC50 [2]: 8.01 µM (active)
AC50 (INS1): 3.11 µM (active)

AC50 (Cytochrome P450 2D6): 39.8 µM (inconclusive)
AC50 (Cytochrome P450 2C19; read-out: AC50): 28.2 µM (inconclusive)
Compound: CCCNC1=NC(=O)N(C)C(=O)/C1=N/O

Compound: C/C(Cn1nnc([N+](=O)[O-])n1)=N\NC(=O)c1ccccc1Cl
EC50 [1]: 470 nM (active)
EC50 [2]: > 60 µM (not active)
AC50 (INS1): 10.5 µM (active)

IC50 [3]: 75.2 µM (active)
Compound: Brc1csc(/C=N\c2ccc3c(c2)OCCOCCOCCOCCO3)c1

IC50 [3]: 25.8 µM (active)
Compound: C=CCN1C(=O)CS/C1=N/c1ccc(O)cc1

Compound: COc1ccccc1/C=N/OCc1cc(C(C)=O)ccc1OC
AC50 (INS1): 44.6 µM (active)

Compound: c1ccc(Nc2nc(-c3ccncc3)cs2)cc1
EC50 [1]: 544 nM (active)
EC50 [2]: > 60 µM (not active)

AC50 (Cytochrome P450 3A4): 39.8 µM (inconclusive)
Compound: Ic1ccc(N2CCN(Cc3c[nH]c4ncccc34)CC2)cc1
